Data reported in patent US20090227575A1, “7H-PYRROLO[2,3-H]QUINAZOLINE COMPOUNDS, THEIR USE AS mTOR KINASE AND PI3 KINASE INHIBITORS, AND THEIR [sequence]” (Wyeth, priority 2008, published 2009).

What was measured:
Type in all cases: biochemical
[1] = target: PI3K-alpha (Homo sapiens, UniProt P42336); assay: PI3K-alpha fluorescence polarization assay; details: read-out: PI3 Kinase α IC50
Experimental: (§1) The reaction buffer was 20 mM HEPES, pH 7.5, 2 mM MgCl2, 0.05% CHAPS; and 0.01% βME (added fresh). The Stop/Detection Buffer was 100 mM HEPES, pH 7.5, 4 mM EDTA, 0.05% CHAPS; ATP 20 mM in water; PIP2 (diC8, Echelon, Salt Lake City Utah cat #P-4508) 1 mM in water (MW=856.5). The GST-GRP was 1.75 mg/mL or 1.4 mg/mL in 10% glycerol. The Red detector (TAMRA) was 2.5 μM. Nunc 384-well black polypropylene fluorescent plates were used for PI3K assays.
(§2) The assay is run by placing 5 μL of diluted enzyme per well, then 5 μL of diluted compound (or 9.5 μL enzyme then 0.5 μL compound in DMSO) is added and mixed. Then, 10 μL substrate is added to start the reaction. The samples are incubated 30-60 minutes, then the reaction is stopped by adding 20 μL stop/detector mix. PI3K is diluted with reaction buffer (e.g., 5 μL or 7.5 μL PI3K into 620 μL reaction buffer), and 5 μL of diluted enzyme is used per well. A 5 μL portion of reaction buffer or of drug diluted in buffer (e.g., 4 μL/100 so final DMSO is 1% in reaction) is added to each. Pipetting up and down mixes the samples. Alternatively, the enzyme can be diluted to 1215 μL. In this case 9.8 μL is added per well and 0.2 μL compound is added in DMSO.
(§3) To prepare 1 mL of substrate solution, 955 μL reaction buffer, 40 μL PIP2, and 2.5 μL ATP are mixed. 10 μL of substrate is added to each well to start the reaction. […] The stop/detector mix is prepared by mixing 4 μL Red detector and 1.6 μL or 2.0 μL GST-GRP with 1 mL stop buffer, which results in 10 nM probe and 70 nM GST-GRP. 20 μL of the stop/detector mix is added to each well to stop the reaction. The plates are read after 30-90 minutes keeping the red probe solutions dark. For the zero time point, stop/detector mix is added to the enzyme just before adding substrate. For an extra control, stop/detector mix is added to buffer (no enzyme) and substrate or to just buffer (no substrate). […] The recommended reaction has 0.06 μL per 20 μL (0.015 μg/20 μL) or 0.01125 μg/15 μL or 0.75 μg/mL.
(§4) Plates are read on machines with filters for TAMRA. The units are mP with no enzyme controls reading app 190-220 mP units. Fully active enzyme reduces fluorescence polarization down to 70-100 mP after 30 minutes. An active compound raises the mP values halfway to control or to 120-150 mP units.

[2] = target: PI3K-gamma (Homo sapiens, UniProt P48736); assay: PI3K-gamma fluorescence polarization assay; details: read-out: PI3 Kinase γ IC50
Experimental: as §1, §2, §3, §4

[3] = target: Human mTOR (Homo sapiens, UniProt P42345); assay: mTOR kinase assay (DELFIA format, purified enzyme); set-up: FLAG; details: read-out: TOR Kinase IC50

PI3K-gamma, sequence (P48736 whole entry, species assumed): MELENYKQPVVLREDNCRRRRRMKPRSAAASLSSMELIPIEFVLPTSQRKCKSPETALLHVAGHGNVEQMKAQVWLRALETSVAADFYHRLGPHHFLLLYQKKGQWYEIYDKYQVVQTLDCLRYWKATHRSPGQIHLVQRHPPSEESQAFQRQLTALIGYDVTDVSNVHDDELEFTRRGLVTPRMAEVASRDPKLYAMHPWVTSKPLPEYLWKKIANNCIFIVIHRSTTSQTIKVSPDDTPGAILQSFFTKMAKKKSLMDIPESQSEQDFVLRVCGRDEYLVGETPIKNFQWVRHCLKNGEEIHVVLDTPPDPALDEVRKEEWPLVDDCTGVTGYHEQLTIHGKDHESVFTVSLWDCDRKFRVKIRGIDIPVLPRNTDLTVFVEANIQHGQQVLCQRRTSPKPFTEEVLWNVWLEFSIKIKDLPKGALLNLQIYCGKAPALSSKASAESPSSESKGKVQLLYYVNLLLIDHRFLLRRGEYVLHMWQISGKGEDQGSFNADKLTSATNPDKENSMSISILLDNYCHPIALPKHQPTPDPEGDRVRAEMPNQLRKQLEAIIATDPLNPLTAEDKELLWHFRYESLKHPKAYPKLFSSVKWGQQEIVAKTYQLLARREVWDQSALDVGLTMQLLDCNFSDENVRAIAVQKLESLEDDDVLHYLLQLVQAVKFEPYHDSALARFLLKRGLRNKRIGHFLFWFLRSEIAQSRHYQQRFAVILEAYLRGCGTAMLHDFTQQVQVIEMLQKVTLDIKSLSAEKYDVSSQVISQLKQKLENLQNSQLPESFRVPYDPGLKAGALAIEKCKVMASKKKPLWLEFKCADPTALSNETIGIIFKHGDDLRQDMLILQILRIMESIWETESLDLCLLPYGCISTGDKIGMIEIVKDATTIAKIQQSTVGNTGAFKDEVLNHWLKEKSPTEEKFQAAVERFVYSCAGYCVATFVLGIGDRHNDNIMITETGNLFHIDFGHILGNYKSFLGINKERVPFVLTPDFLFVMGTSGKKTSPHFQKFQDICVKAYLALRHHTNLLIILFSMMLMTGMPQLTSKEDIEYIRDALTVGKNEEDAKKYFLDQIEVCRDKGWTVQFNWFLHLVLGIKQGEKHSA
PI3K-alpha, sequence (P42336 whole entry, species assumed): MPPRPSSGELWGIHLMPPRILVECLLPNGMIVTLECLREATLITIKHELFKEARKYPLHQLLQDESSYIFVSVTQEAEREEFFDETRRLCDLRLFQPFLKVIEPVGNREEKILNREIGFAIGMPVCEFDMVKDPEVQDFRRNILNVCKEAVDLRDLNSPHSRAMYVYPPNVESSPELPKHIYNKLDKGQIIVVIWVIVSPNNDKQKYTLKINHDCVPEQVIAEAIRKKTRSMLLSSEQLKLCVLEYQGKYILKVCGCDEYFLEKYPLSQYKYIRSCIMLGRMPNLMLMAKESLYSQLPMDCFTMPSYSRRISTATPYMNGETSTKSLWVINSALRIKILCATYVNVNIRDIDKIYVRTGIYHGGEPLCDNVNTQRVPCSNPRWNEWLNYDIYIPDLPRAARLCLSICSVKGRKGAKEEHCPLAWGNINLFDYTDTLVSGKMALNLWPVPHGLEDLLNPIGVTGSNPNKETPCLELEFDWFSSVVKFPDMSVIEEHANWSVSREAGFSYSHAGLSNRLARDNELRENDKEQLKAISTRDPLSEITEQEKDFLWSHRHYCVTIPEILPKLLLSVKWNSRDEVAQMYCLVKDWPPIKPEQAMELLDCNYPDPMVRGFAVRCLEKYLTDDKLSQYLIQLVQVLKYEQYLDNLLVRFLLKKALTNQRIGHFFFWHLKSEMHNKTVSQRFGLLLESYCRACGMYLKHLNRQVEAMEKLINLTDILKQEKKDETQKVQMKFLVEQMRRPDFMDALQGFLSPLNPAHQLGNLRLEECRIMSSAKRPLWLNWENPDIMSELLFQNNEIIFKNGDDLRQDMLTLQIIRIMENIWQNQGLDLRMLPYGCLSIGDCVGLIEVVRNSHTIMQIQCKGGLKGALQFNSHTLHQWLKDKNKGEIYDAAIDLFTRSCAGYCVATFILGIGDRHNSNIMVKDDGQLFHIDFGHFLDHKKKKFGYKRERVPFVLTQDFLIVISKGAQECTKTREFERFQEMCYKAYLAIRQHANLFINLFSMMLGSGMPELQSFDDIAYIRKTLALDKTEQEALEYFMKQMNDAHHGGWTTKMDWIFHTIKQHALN
PI3K-alpha, sequence (P27986 whole entry partner, species assumed): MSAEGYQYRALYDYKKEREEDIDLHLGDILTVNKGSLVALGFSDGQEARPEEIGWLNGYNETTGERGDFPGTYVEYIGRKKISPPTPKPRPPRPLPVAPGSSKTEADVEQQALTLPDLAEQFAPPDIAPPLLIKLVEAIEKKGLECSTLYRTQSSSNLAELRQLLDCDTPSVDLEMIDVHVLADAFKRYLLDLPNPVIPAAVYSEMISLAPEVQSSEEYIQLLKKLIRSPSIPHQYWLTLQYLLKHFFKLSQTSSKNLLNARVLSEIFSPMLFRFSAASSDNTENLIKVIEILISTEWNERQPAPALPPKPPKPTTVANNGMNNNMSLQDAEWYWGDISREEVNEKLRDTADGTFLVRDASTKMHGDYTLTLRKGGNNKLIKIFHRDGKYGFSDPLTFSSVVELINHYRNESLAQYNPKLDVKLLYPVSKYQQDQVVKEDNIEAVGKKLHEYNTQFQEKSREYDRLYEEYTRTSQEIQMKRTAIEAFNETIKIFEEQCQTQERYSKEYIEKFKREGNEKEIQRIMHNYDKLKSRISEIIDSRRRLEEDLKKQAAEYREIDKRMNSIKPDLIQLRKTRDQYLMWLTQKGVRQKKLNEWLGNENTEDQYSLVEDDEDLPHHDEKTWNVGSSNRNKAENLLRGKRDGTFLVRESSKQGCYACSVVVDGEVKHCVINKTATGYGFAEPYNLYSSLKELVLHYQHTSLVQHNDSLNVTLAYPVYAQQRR

Compound	IC50 [1] [µM]	IC50 [2] [µM]	IC50 [3] [µM]
COc1ccc(-c2nc(N3CCOCC3)c3ccc4c(ccn4C)c3n2)cn1 [Example 47, 2-(6-methoxypyridin-3-yl)-7-methyl-4-morpholin-4-yl-7H-pyrrolo[2,3-h]quinazoline]	> 10	> 10	2.05
CCC(O)c1cccc(-c2nc(N3CCOCC3)c3ccc4c(ccn4C)c3n2)c1 (stereo not drawn) [Example 25, 1-[3-(7-methyl-4-morpholin-4-yl-7H-pyrrolo[2,3-h]quinazolin-2-yl)phenyl]propan-1-ol]	7.55	> 10	3.05
CCN1CCC(S(=O)(=O)n2ccc3c4nc(-c5ccc(NC(=O)Nc6ccncc6)cc5)nc(N5CCOCC5)c4ccc32)CC1 [Example 64, 1-(4-{7-[(1-ethylpiperidin-4-yl)sulfonyl]-4-morpholin-4-yl-7H-pyrrolo[2,3-h]quinazolin-2-yl}phenyl)-3-pyridin-4-ylurea]	0.074	0.313	0.044
CC(C)c1ccc(NC(=O)Nc2ccc(-c3nc(N4CCOCC4)c4ccc5c(ccn5C)c4n3)cc2)cc1 [Example 12, 1-(4-isopropylphenyl)-3-[4-(7-methyl-4-morpholin-4-yl-7H-pyrrolo[2,3-h]quinazolin-2-yl)phenyl]urea]	2	1.33	0.355
O=C(Nc1ccncc1)Nc1ccc(-c2nc(N3CCOCC3)c3ccc4c(ccn4S(=O)(=O)C4CCNCC4)c3n2)cc1 [Example 62, 1-{4-[4-morpholin-4-yl-7-(piperidin-4-ylsulfonyl)-7H-pyrrolo[2,3-h]quinazolin-2-yl]phenyl}-3-pyridin-4-ylurea]	0.114	0.519	0.028
Cn1ccc2c3nc(-c4cccc(O)c4)nc(N4CCOCC4)c3ccc21 [Example 35, 3-(7-methyl-4-morpholin-4-yl-7H-pyrrolo[2,3-h]quinazolin-2-yl)phenol]	0.174	2.23	0.41
COCOc1cncc(-c2nc(N3CCOCC3)c3ccc4c(ccn4C)c3n2)c1 [Example 77, 2-[5-(methoxymethoxy)pyridin-3-yl]-7-methyl-4-morpholin-4-yl-7H-pyrrolo[2,3-h]quinazoline]	0.451	0.933	0.525
Cn1ccc2c3nc(-c4ccc(NC(=O)c5cccnc5)cc4)nc(N4CCOCC4)c3ccc21 [Example 17, N-[4-(7-methyl-4-morpholin-4-yl-7H-pyrrolo[2,3-h]quinazolin-2-yl)phenyl]nicotinamide]	> 10	9.85	1.4
O=Cc1c[nH]c2ccc3c(N4CCOCC4)nc(-c4cccc(O)c4)nc3c12 [Example 82, 2-(3-hydroxyphenyl)-4-morpholin-4-yl-7H-pyrrolo[2,3-h]quinazoline-9-carbaldehyde]	0.111	0.147	0.016
O=S(=O)(c1ccccc1)n1ccc2c3nc(-c4cccc5[nH]ncc45)nc(N4CCOCC4)c3ccc21 [Example 72, 2-(1H-indazol-4-yl)-4-morpholin-4-yl-7-(phenylsulfonyl)-7H-pyrrolo[2,3-h]quinazoline]	4.01	5.16	3.25
C=CCC(O)c1cccc(-c2nc(N3CCOCC3)c3ccc4c(ccn4C)c3n2)c1 (stereo not drawn) [Example 27, 1-[3-(7-methyl-4-morpholin-4-yl-7H-pyrrolo[2,3-h]quinazolin-2-yl)phenyl]but-3-en-1-ol]	6.59	6.66	2.8
Cn1ccc2c3nc(-c4cccc5[nH]ccc45)nc(N4CCOCC4)c3ccc21 [Example 45, 2-(1H-indol-4-yl)-7-methyl-4-morpholin-4-yl-7H-pyrrolo[2,3-h]quinazoline]	2.46	2.83	1.13
2-(1H-indol-4-yl)-7-methyl-4-morpholin-5-yl-7H-pyrrolo[2,3-h]quinazoline [Example 49]	6.31	4.66	0.34
COC(=O)c1ccc(-c2nc(N3CCOCC3)c3ccc4c(ccn4C)c3n2)cc1 [Example 36, Methyl 4-(7-methyl-4-morpholin-4-yl-7H-pyrrolo[2,3-h]quinazolin-2-yl)benzoate]	1.76	4	1.6
CN(C)CCn1ccc2c3nc(-c4cnc(N)nc4)nc(N4CCOCC4)c3ccc21 [Example 34, 5-{7-[2-(dimethylamino)ethyl]-4-morpholin-4-yl-7H-pyrrolo[2,3-h]quinazolin-2-yl}pyrimidin-2-amine]	0.201	3.19	1.3
CC(C)N1CCC(S(=O)(=O)n2ccc3c4nc(-c5ccc(NC(=O)Nc6ccncc6)cc5)nc(N5CCOCC5)c4ccc32)CC1 [Example 65, 1-(4-{7-[(1-isopropylpiperidin-4-yl)sulfonyl]-4-morpholin-4-yl-7H-pyrrolo[2,3-h]quinazolin-2-yl}phenyl)-3-pyridin-4-ylurea]	0.048	0.3	0.073
c1cc(-c2nc(N3CCOCC3)c3ccc4[nH]ccc4c3n2)c2cn[nH]c2c1 [Example 80, 2-(1H-indazol-4-yl)-4-morpholin-4-yl-7H-pyrrolo[2,3-h]quinazoline]	10.3	> 10	2.08
CN(C)CCn1ccc2c3nc(-c4cccc(OCc5ccccc5)c4)nc(N4CCOCC4)c3ccc21 [Example 31, 2-{2-[3-(benzyloxy)phenyl]-4-morpholin-4-yl-7H-pyrrolo[2,3-h]quinazolin-7-yl}-N,N-dimethylethanamine]	4.03	2.48	> 20
Cn1ccc2c3nc(-c4ccc(NC(=O)NCc5ccco5)cc4)nc(N4CCOCC4)c3ccc21 [Example 7, 1-(2-furylmethyl)-3-[4-(7-methyl-4-morpholin-4-yl-7H-pyrrolo[2,3-h]quinazolin-2-yl)phenyl]urea]	1.69	3.5	0.56
Cn1ccc2c3nc(-c4ccc(NC(=O)Nc5ccc(C(F)(F)F)cc5)cc4)nc(N4CCOCC4)c3ccc21 [Example 14, 1-[4-(7-methyl-4-morpholin-4-yl-7H-pyrrolo[2,3-h]quinazolin-2-yl)phenyl]-3-[4-(trifluoromethyl)phenyl]urea]	0.239	0.634	0.125
CS(=O)(=O)n1ccc2c3nc(-c4cccc(O)c4)nc(N4CCOCC4)c3ccc21 [Example 59, 3-[7-(methylsulfonyl)-4-morpholin-4-yl-7H-pyrrolo[2,3-h]quinazolin-2-yl]phenol]	0.063	0.56	2.6
CCOC(=O)Nc1ccc(-c2nc(N3CCOCC3)c3ccc4c(ccn4C)c3n2)cc1 [Example 20, ethyl [4-(7-methyl-4-morpholin-4-yl-7H-pyrrolo[2,3-h]quinazolin-2-yl)phenyl]carbamate]	3.31	2.09	0.39
O=C(OCc1ccccc1)N1CCC(S(=O)(=O)n2ccc3c4nc(-c5cccc(O)c5)nc(N5CCOCC5)c4ccc32)CC1 [Example 66, benzyl 4-{[2-(3-hydroxyphenyl)-4-morpholin-4-yl-7H-pyrrolo[2,3-h]quinazolin-7-yl]sulfonyl}piperidine-1-carboxylate]	0.245	5.75	2.25
Cn1ccc2c3nc(-c4cccc5[nH]ncc45)nc(N4CCOCC4)c3ccc21 [Example 79, 2-(1H-indazol-4-yl)-7-methyl-4-morpholin-4-yl-7H-pyrrolo[2,3-h]quinazoline]	1.08	6.09	0.435
Cn1ccc2c3nc(-c4ccc(NC(=O)Nc5ccncc5)cc4)nc(N4CCOCC4)c3ccc21 [Example 11, 1-[4-(7-methyl-4-morpholin-4-yl-7H-pyrrolo[2,3-h]quinazolin-2-yl)phenyl]-3-pyridin-4-ylurea]	0.101	0.437	0.0037
CNC(=O)Nc1ccc(-c2nc(N3CCOCC3)c3ccc4c(ccn4C)c3n2)cc1 [Example 2, 1-methyl-3-[4-(7-methyl-4-morpholin-4-yl-7H-pyrrolo[2,3h]quinazolin-2-yl)phenyl]urea]	0.428	5.39	0.066
